From patent publication US8921397B2, “Benzofurane-piperidine compounds” (Hoffmann-La Roche Inc., priority 2011, dated 2014) come the findings set out here.

For one data set, the target named is human 5-HT2A receptor (Homo sapiens (Human), UniProt P28223). Put plainly: Radioligand binding ([3H]-ketanserin) to human 5-HT2A receptor, HEK293 EBNA membranes. The settings on record: HEK293 EBNA cells expressing human 5-HT2A receptor. The procedure:
The ability of the compounds to bind to the 5-HT2A, D3 and D2 receptors was determined using radioligand binding to cloned receptors selectively expressed in HEK-293 EBNA cells.
(§1) HEK293 EBNA cells were transiently transfected with expression plasmids encoding for the human D2 or D3 or for the human 5-HT2A receptor, respectively. The cells were harvested 48 h post-transfection, washed three times with cold PBS and stored at −80° C. prior to use. The pellet was suspended in cold 50 mM Tris-HCl buffer containing 10 mM EDTA (pH 7.4) and was homogenized with a Polytron (Kinematica AG, Basel, Switzerland) for 20-30 sec at 12.000 rpm. After centrifugation at 48.000×g for 30 min at 4° C., the pellet was resuspended in cold 10 mM Tris-HCl buffer containing 0.1 mM EDTA (pH 7.4), homogenized, and centrifuged as above. This pellet was further resuspended in a smaller volume of ice cold 10 mM Tris-HCl buffer containing 0.1 mM EDTA (pH 7.4) and homogenized with a Polytron for 20-30 sec at 12.000 rpm. The protein content of this homogenate was determined with the Bio-Rad (Bradford) Protein Assay (Biorad Laboratories GmbH, München, Germany) according to the instructions of the manufacturer using gamma globulin as the standard. This homogenate was stored at −80° C. in aliquots and thawed immediately prior to use.
(§2) Aliquots of membrane preparations were thawed at RT, resuspended in assay buffer (D2, D3: 50 mM Tris-HCl, 120 mM NaCl, 5 mM MgCl2, 1 mM EDTA, 5 mM KCl, 1.5 mM CaCl2, pH=7.4; 5-HT2A: 50 mM Tris-HCl, 10 mM MgCl2, 1 mM EGTA, pH=7.4), homogenized with a Polytron for 20-30 sec at 12.000 rpm and adjusted to a final concentration of approximately 7.5 μg protein/well (D2, D3) and 15 μg protein/well (5-HT2A), respectively.
(§3) The binding affinity (Ki) of the compounds was determined using radioligand binding.
(§4) Membranes were incubated in a total volume of 200 μl with a fixed concentration of radioligand (final concentration approximately 0.7 nM [^3H]-spiperone for D2, 0.5 nM [^3 H]-spiperone for D3, and 1.1 nM [^3H]-ketanserin for 5-HT2A) and ten concentrations of test compound in ranging between 10 μM-0.1 nM for 1 h at RT. At the end of the incubation, the reaction mixtures were filtered on to unifilter 96-well white microplates with bonded GF/C filters (Packard BioScience, Zürich, Switzerland; preincubated for 1 h in 0.1% polyethylenimine (PEI) in assay buffer) with a Filtermate 196 harvester (Packard BioScience) and washed 3 times with cold assay buffer. The nonspecific binding was determined with equally composed reaction mixtures in the presence of 10 μM unlabelled spiperone. Per well 45 μl of Microscint 40 (Perkin Elmer, Schwerzenbach, Switzerland) was added, plates for sealed, shaken for 20 min and counted for 3 min on a Topcount Microplate Scintillation Counter (Canberra Packard SA, Zürich, Switzerland) with quenching correction.
(§5) The CPM value for each duplicate of a concentration of competing compound was averaged (y1), then the % specific binding was calculated according to the equation (((y1−non-specific)/(total binding−non-specific))×100). Graphs were plotted with the % specific binding using XLfit, a curve-fitting program that iteratively plots the data using Levenberg-Marquardt algorithm. The single site competition analysis equation used was y=A+((B−A)/(1+((x/C)D))), where y is the % specific binding, A is the minimum y, B is the maximum y, C is the IC50, x is the log 10 of the concentration of the competing compound and D is the slope of the curve (the Hill Coefficient). From these curves the IC50 (inhibition concentration at which 50% specific binding of the radioligand was displaced) and Hill coefficient were determined. The affinity constant (Ki) was calculated using the Cheng-Prusoff equation Ki=(IC50/1+([L]/Kd), where [L] is the concentration of radioligand and Kd is the dissociation constant of the radioligand at the receptor as determined by the saturation isotherm.

Another data set has as its target human D2 receptor (Homo sapiens (Human), UniProt P14416). Put plainly: Radioligand binding ([3H]-spiperone) to human D2 receptor, HEK293 EBNA membranes. The settings on record: HEK293 EBNA cells expressing human D2 receptor. The procedure:
as §1, §2, §3, §4, §5

A further data set addresses human D3 receptor (Homo sapiens (Human), UniProt P35462). Put plainly: Radioligand binding ([3H]-spiperone) to human D3 receptor, HEK293 EBNA membranes. The settings on record: HEK293 EBNA cells expressing human D3 receptor. As to the method: as §1, §2, §3, §4, §5

A word on the Ki: it is a measure of affinity in units of concentration, obtained from inhibition or displacement. As a reminder, the melting point is the temperature, or range, at which the solid turns liquid.

human D2 receptor, sequence (P14416 whole entry): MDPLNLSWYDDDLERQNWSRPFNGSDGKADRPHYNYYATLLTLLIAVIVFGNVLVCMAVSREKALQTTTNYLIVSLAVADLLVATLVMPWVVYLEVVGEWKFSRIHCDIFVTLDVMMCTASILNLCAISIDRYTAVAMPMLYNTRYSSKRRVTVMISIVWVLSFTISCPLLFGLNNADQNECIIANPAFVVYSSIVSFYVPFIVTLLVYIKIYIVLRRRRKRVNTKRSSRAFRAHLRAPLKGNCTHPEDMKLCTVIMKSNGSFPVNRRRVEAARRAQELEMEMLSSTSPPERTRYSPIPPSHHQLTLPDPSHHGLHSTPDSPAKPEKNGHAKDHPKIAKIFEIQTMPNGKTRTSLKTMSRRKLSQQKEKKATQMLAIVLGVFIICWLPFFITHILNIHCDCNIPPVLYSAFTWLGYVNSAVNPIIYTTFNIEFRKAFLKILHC
human D3 receptor, sequence (P35462 whole entry): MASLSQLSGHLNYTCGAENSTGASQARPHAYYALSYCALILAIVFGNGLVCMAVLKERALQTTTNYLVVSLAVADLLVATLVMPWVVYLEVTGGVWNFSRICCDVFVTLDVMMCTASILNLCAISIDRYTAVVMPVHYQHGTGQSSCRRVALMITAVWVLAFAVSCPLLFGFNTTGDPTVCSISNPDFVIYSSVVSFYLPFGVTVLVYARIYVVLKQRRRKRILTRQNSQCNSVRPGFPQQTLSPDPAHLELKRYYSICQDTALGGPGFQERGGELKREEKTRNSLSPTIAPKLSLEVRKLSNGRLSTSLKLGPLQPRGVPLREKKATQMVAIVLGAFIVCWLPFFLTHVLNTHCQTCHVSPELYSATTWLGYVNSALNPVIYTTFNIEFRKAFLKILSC
human 5-HT2A receptor, sequence (P28223 whole entry): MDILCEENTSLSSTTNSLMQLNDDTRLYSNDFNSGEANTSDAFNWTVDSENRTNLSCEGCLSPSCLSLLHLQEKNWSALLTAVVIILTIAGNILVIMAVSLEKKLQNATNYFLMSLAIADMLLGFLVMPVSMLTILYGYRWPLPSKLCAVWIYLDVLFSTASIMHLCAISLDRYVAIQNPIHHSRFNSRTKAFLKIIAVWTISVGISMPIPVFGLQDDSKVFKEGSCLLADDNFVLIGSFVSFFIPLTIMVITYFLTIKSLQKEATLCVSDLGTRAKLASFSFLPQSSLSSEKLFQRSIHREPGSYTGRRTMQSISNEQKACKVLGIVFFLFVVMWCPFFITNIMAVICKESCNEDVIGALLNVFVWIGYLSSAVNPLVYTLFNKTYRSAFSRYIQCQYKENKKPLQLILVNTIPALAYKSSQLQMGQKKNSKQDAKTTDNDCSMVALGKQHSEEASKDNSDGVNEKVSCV

Molecule `CC(C)C(=O)N[C@H]1CC[C@H](CCN2CCC(c3coc4ccccc34)CC2)CC1` [Example 14, trans-N-{4-[2-(4-Benzofuran-3-yl-piperidin-1-yl)-ethyl]-cyclohexyl}-isobutyramide] returned a melting point of 173 °C. For the same molecule, at human 5-HT2A receptor, the Ki came to 5.75 nM. Also, the Ki on human D2 receptor amounted to 39.5 nM. On human D3 receptor, the Ki was 1.78 nM.

The molecule `CC(C)CC(=O)N[C@H]1CC[C@H](CCN2CCC(c3coc4ccccc34)CC2)CC1` [Example 15, trans-N-{4-[2-(4-Benzofuran-3-yl-piperidin-1-yl)-ethyl]-cyclohexyl}-3-methyl-butyramide] came in with a melting point of 182 °C. Besides, on human 5-HT2A receptor, the Ki came to 8.65 nM. On human D2 receptor, the Ki was determined as 43.5 nM. Moreover, on human D3 receptor, the Ki amounted to 1.94 nM.

`CC(C)(O)C(=O)N[C@H]1CC[C@H](CCN2CCC(c3coc4ccccc34)CC2)CC1` [Example 16, trans-N-{4-[2-(4-Benzofuran-3-yl-piperidin-1-yl)-ethyl]-cyclohexyl}-2-hydroxy-2-methyl-propionamide] came in with a melting point of 169 °C. For the same molecule, the Ki at human 5-HT2A receptor is 2.25 nM. Also, on human D2 receptor, the Ki is 53.7 nM. Also, on human D3 receptor, the Ki worked out at 5.51 nM.

On to `O=C(N[C@H]1CC[C@H](CCN2CCC(c3coc4ccccc34)CC2)CC1)c1ccnc2ccccc12` [Example 19, Quinoline-4-carboxylic acid trans-{4-[2-(4-benzofuran-3-yl-piperidin-1-yl)-ethyl]-cyclohexyl}-amide], for which the melting point is 169 °C. Besides, the Ki at human 5-HT2A receptor worked out at 8.7 nM. Moreover, at human D2 receptor, the Ki amounted to 96.7 nM. On human D3 receptor, the Ki is 3.36 nM.

For the molecule `O=C(N[C@H]1CC[C@H](CCN2CCC(c3coc4ccccc34)CC2)CC1)C1CCC1` [Example 20, Cyclobutanecarboxylic acid trans-{4-[2-(4-benzofuran-3-yl-piperidin-1-yl)-ethyl]-cyclohexyl}-amide], the melting point was found to be 180 °C. Besides, the Ki at human 5-HT2A receptor amounted to 5.56 nM. The Ki at human D2 receptor was found to be 38 nM. The Ki on human D3 receptor came out at 1.85 nM.

`O=C(CCO)N[C@H]1CC[C@H](CCN2CCC(c3coc4ccccc34)CC2)CC1` [Example 21, trans-N-{4-[2-(4-Benzofuran-3-yl-piperidin-1-yl)-ethyl]-cyclohexyl}-3-hydroxy-propionamide] registered a melting point of 148 °C. The Ki on human 5-HT2A receptor came to 8.26 nM. Also, the Ki at human D2 receptor stood at 62.9 nM. At human D3 receptor, the Ki is 1.27 nM.

In turn, `O=C(N[C@H]1CC[C@H](CCN2CCC(c3coc4ccccc34)CC2)CC1)C1(O)CC1` [Example 22, 1-Hydroxy-cyclopropanecarboxylic acid trans-{4-[2-(4-benzofuran-3-yl-piperidin-1-yl)-ethyl]-cyclohexyl}-amide] came in with a melting point of 200 °C. Further, the inhibitory constant (Ki) on human 5-HT2A receptor was found to be 3.05 nM. The Ki at human D2 receptor came out at 47.5 nM. Also, the Ki on human D3 receptor was 1.48 nM.

In turn, `N#CCC(=O)N[C@H]1CC[C@H](CCN2CCC(c3coc4ccccc34)CC2)CC1` [Example 23, trans-N-{4-[2-(4-Benzofuran-3-yl-piperidin-1-yl)-ethyl]-cyclohexyl}-2-cyano-acetamide] came in with a melting point of 186 °C. For the same molecule, the Ki at human 5-HT2A receptor is 5.96 nM. In addition, the inhibition constant Ki at human D2 receptor was 41.5 nM. For the same molecule, the Ki at human D3 receptor came to 0.84 nM.

Turning to `O=C(N[C@H]1CC[C@H](CCN2CCC(c3coc4ccccc34)CC2)CC1)c1ccc(F)cc1` [Example 24, trans-N-{4-[2-(4-Benzofuran-3-yl-piperidin-1-yl)-ethyl]-cyclohexyl}-4-fluoro-benzamide], the melting point turned out to be 193 °C. Further, the Ki at human 5-HT2A receptor stood at 5.66 nM. For the same molecule, at human D2 receptor, the Ki stood at 68.9 nM. On human D3 receptor, the Ki was determined as 3.05 nM.

`O=C(CC1CC1)N[C@H]1CC[C@H](CCN2CCC(c3coc4ccccc34)CC2)CC1` [Example 25, trans-N-{4-[2-(4-Benzofuran-3-yl-piperidin-1-yl)-ethyl]-cyclohexyl}-2-cyclopropyl-acetamide]: the melting point came to 165 °C. In addition, on human 5-HT2A receptor, the Ki came to 5.16 nM. Moreover, the Ki on human D2 receptor is 33.7 nM. Further, the Ki at human D3 receptor amounted to 2.24 nM.

For the molecule `O=C(N[C@H]1CC[C@H](CCN2CCC(c3coc4ccccc34)CC2)CC1)C1CCCOC1` (stereo partly drawn) [Example 26, Tetrahydro-pyran-3-carboxylic acid trans-{4-[2-(4-benzofuran-3-yl-piperidin-1-yl)-ethyl]-cyclohexyl}-amide], the melting point was 188 °C. For the same molecule, on human 5-HT2A receptor, the Ki was 4.7 nM. Besides, the Ki at human D2 receptor is 37.1 nM. The Ki on human D3 receptor was determined as 5.88 nM.

As for `O=C(N[C@H]1CC[C@H](CCN2CCC(c3coc4ccccc34)CC2)CC1)C1CC1` [Example 27, Cyclopropanecarboxylic acid trans-{4-[2-(4-benzofuran-3-yl-piperidin-1-yl)-ethyl]-cyclohexyl}-amide], the melting point was found to be 204 °C. For the same molecule, at human 5-HT2A receptor, the Ki was 4.3 nM. Also, the Ki on human D2 receptor turned out to be 22.7 nM. Moreover, the Ki on human D3 receptor was found to be 2.69 nM.

`CC(C)(C)C(=O)N[C@H]1CC[C@H](CCN2CCC(c3coc4ccccc34)CC2)CC1` [Example 28, trans-N-{4-[2-(4-Benzofuran-3-yl-piperidin-1-yl)-ethyl]-cyclohexyl}-2,2-dimethyl-propionamide] showed a melting point of 157 °C. Further, on human 5-HT2A receptor, the Ki came to 6.05 nM. Further, on human D2 receptor, the Ki was found to be 38 nM. In addition, the Ki on human D3 receptor worked out at 12.7 nM.

`O=C(CC1CCCO1)N[C@H]1CC[C@H](CCN2CCC(c3coc4ccccc34)CC2)CC1` (stereo partly drawn) [Example 29, trans-N-{4-[2-(4-Benzofuran-3-yl-piperidin-1-yl)-ethyl]-cyclohexyl}-2-(tetrahydro-furan-2-yl)-acetamide]: the melting point turned out to be 149 °C. In addition, the Ki on human 5-HT2A receptor came out at 5.43 nM. On human D2 receptor, the inhibitory constant (Ki) is 52.9 nM. For the same molecule, the Ki on human D3 receptor was found to be 2.75 nM.

`O=C(N[C@H]1CC[C@H](CCN2CCC(c3coc4ccccc34)CC2)CC1)C1CC1(F)F` (stereo partly drawn) [Example 30, 2,2-Difluoro-cyclopropanecarboxylic acid trans-{4-[2-(4-benzofuran-3-yl-piperidin-1-yl)-ethyl]-cyclohexyl}-amide] had a melting point of 189 °C. Further, the Ki on human 5-HT2A receptor was 8.59 nM. For the same molecule, the Ki on human D2 receptor amounted to 28.1 nM. Moreover, the Ki at human D3 receptor worked out at 3.53 nM.

Molecule `CCCC(=O)N[C@H]1CC[C@H](CCN2CCC(c3coc4ccccc34)CC2)CC1` [Example 33, trans-N-{4-[2-(4-Benzofuran-3-yl-piperidin-1-yl)-ethyl]-cyclohexyl}-butyramide] had a melting point of 155 °C. Further, the Ki on human 5-HT2A receptor turned out to be 5.53 nM. For the same molecule, the Ki on human D2 receptor is 45.3 nM. For the same molecule, the Ki at human D3 receptor was 1.71 nM.

As for `CC(C)(O)CC(=O)N[C@H]1CC[C@H](CCN2CCC(c3coc4ccccc34)CC2)CC1` [Example 34, trans-N-{4-[2-(4-Benzofuran-3-yl-piperidin-1-yl)-ethyl]-cyclohexyl}-3-hydroxy-3-methyl-butyramide], the melting point amounted to 150 °C. The Ki on human 5-HT2A receptor worked out at 5.1 nM. In addition, the Ki on human D2 receptor is 41.3 nM. Besides, the Ki at human D3 receptor worked out at 2.25 nM.
